Values quoted from earlier work as cited in patent publication US9809617B2, “Crystal form of regadenoson and preparation method thereof” (Shanghai Ziyuan Pharmaceutical Co., Ltd., priority 2015, dated 2017).

conditions: heat / humidity, as described for U.S. Pat. No. 7,732,595

Row | SMILES | stability of crystal form (in words)
1 | CCNC(=O)c1cnn(-c2nc(N)c3ncn(C4O[C@H](CO)[C@@H](O)[C@H]4O)c3n2)c1 (stereo partly drawn) [Crystal form A] | stable under heating under relative humidity stress conditions up to its melting point
2 | CCNC(=O)c1cnn(-c2nc(N)c3ncn(C4O[C@H](CO)[C@@H](O)[C@H]4O)c3n2)c1 (stereo partly drawn) [amorphous form of regadenoson] | unstable in atmospheric moisture
3 | CCNC(=O)c1cnn(-c2nc(N)c3ncn(C4O[C@H](CO)[C@@H](O)[C@H]4O)c3n2)c1 (stereo partly drawn) [crystal form C] | unstable after losing crystal water under a high temperature
